In ChEMBL document CHEMBL1143368, “The translocator protein (18 kDa): central nervous system disease and drug design” (J Med Chem, 2009):

What was measured:
[1] = species on record: Rattus norvegicus; test: Displacement of [3H]diazepam from central benzodiazepine receptor in Wistar rat […] by scintillation counting
[2] = biological target: Translocator protein (Homo sapiens) (UniProt P30536); test: Displacement of [3H]Ro5-4864 from TSPO in caudate nucleus of patient with Huntington's disease; details: tested as the 3H-labelled form
Sequence of Translocator protein (Homo sapiens) (P30536 whole entry): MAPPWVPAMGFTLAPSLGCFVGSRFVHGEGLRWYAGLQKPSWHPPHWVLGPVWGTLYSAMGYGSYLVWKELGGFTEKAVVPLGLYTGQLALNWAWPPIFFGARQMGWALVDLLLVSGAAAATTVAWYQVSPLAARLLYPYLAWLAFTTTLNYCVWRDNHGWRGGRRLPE

[3] = biological target: Translocator protein (Homo sapiens) (UniProt P30536); test: Displacement of [3H]Ro5-4864 from TSPO
[4] = species on record: Rattus norvegicus; test: Displacement of [3H]Ro5-4864 from GABAA receptor in rat brain membrane; format: cell membranes
[5] = biological target: Translocator protein (Homo sapiens) (UniProt P30536); test: Displacement of [3H]Ro5-4864 from TSPO in putamen of healthy human; details: tested as the 3H-labelled form
[6] = system: U-937; test: Antiapoptotic activity against TNF-alpha-induced apoptosis in human U937 cells; format: functional
[7] = biological target: Translocator protein (Mus musculus) (UniProt P50637); test: Binding affinity to mitochondrial TSPO in mouse MA10 cells in presence of human chorionic gonadotropin; format: cell-based
Sequence of Translocator protein (Mus musculus) (P50637 whole entry, looked up): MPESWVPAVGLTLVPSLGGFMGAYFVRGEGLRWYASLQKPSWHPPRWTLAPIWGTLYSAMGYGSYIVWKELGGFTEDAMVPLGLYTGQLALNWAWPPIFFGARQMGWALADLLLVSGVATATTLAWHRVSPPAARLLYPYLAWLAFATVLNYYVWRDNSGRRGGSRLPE

[8] = system: U-937; test: Induction of apoptosis in human U937 cells; format: functional
[9] = biological target: Translocator protein (Rattus norvegicus, UniProt P16257); test: Displacement of [3H]PK11195 from TSPO in rat cortex
Sequence of Translocator protein (P16257 whole entry, looked up): as the sequence (P50637 whole entry, looked up) above, with P2S, E3Q, V67I, D77E, A110V, L113M, V149M, P168T counted along it

[10] = biological target: Translocator protein (Homo sapiens) (UniProt P30536); test: Binding affinity to TSPO in white matter of healthy human; format: tissue-based; details: tested as the 125I-labelled form
[11] = biological target: Translocator protein (Homo sapiens) (UniProt P30536); test: Binding affinity to TSPO in parietal lobe of healthy human; format: tissue-based; details: tested as the 125I-labelled form
[12] = biological target: Translocator protein (Homo sapiens) (UniProt P30536); test: Binding affinity to TSPO in white matter of patient with Alzheimer's disease; format: tissue-based; details: tested as the 125I-labelled form
[13] = biological target: Translocator protein (Homo sapiens) (UniProt P30536); test: Binding affinity to TSPO in parietal lobe of patient with Alzheimer's disease; details: tested as the 125I-labelled form
[14] = biological target: Translocator protein (Homo sapiens) (UniProt P30536); test: Binding affinity to TSPO in temporal lobe of healthy human; format: tissue-based; details: tested as the 125I-labelled form
[15] = biological target: Translocator protein (Homo sapiens) (UniProt P30536); test: Binding affinity to TSPO in temporal lobe of patient with Alzheimer's disease; details: tested as the 125I-labelled form

Question: `CN1C(=O)CN=C(c2ccccc2)c2cc(Cl)ccc21` was tested. Which Activity [1] did it give?
Answer: Its Activity is 40 nM.

Question: What does the source list for `CN1C(=O)CN=C(c2ccc(Cl)cc2)c2cc(Cl)ccc21` [RO-54864]?
Answer: Bmax [2]: 61.7 fmol/mg; Activity [3]: 7.3 nM; Activity [4]: 163 µM; Bmax [5]: 40.7 fmol/mg; Activity [6]: 10 µM; Activity [7]: 0.2 nM; Activity [8]: >10 µM

Question: For `CC(=O)N(Cc1ccccc1OC(C)C)c1ccc(Cl)cc1Oc1ccccc1`, which Ki [9] is on record?
Answer: Its Ki is 0.92 nM.

Question: How did the Ki [9] turn out when `CCCCCCN(CCCCCC)C(=O)Cc1c(-c2ccc(F)cc2)[nH]c2ccccc12` was run?
Answer: The Ki was 5 nM.

Question: Which results are given for `COc1ccc(OC)c(CN(C(C)=O)c2cc(I)ccc2Oc2ccccc2)c1`?
Answer: Bmax [10]: 0.24 fmol/mg; Bmax [11]: 0.32 fmol/mg; Bmax [12]: 1.12 fmol/mg; Bmax [13]: 1.26 fmol/mg; Bmax [14]: 0.22 fmol/mg; Bmax [15]: 1.02 fmol/mg
